{
  "source": "patent US6313179A",
  "about": "“Treatment of hyperproliferative skin disorders with C18 to C20 aliphatic alcohols” (Avanir Pharmaceuticals, priority 1998, dated 2001)",
  "key": {"Human keloid fibroblasts [1]": {"tested_on": "Human keloid fibroblasts", "assay": "Antiproliferative activity of n-docosanol in keloid cells (Example 1, viable cell count)", "format": "cell-based", "conditions": "15 mM; for inhibition of keloid cell growth in vitro (in words): cultured keloid / hypertrophic fibroblasts; for activity at 15000 µM / cells/well: Table 1; for activity at 15000 µM: compared to cells incubated with no addition, read-out: % control", "method": "(§1) Human keloid fibroblasts were obtained from the American Type Culture Collection (Rockville, Md.) (CRL 1762). n-Docosanol (300 mM) was suspended in the nonionic surfactant Pluronic F-68 (12 mM) as described previously (Katz et al., Proc. Natl. Acad. Sci. U.S.A., 88:10825-10829, 1991, hereby incorporated by reference). A vehicle control was prepared using the same procedure except n-docosanol was omitted. Keloid cells (2.7×10^4per well) were added to 16 mm wells containing DMEM supplemented with 10% fetal calf serum (FCS), sodium pyruvate, L-glutamine and penicillin/streptomycin. n-Docosanol (15 mM) or the corresponding Pluronic F-68 control (0.6 mM) was added (total volume=2.0 ml). Cells were harvested after incubation for 72 and 168 hours at 37° C. in a humidified 10% CO2 incubator. The number of viable cells was determined by trypan blue staining."}, "keloid cells": {"tested_on": "keloid cells", "assay": "Comparison of n-docosanol effect between keloid and normal cells: keloid cells (Example 2)", "format": "cell-based, Human", "conditions": "15 mM; for inhibition at 15000 µM / activity at 15000 µM: Homo sapiens; for inhibition at 15000 µM: read-out: inhibition of number of keloid cells per well; for activity at 15000 µM / cells/well: Table 2; for activity at 15000 µM: compared to cells incubated with no addition, read-out: % control", "method": "as §1\n(§2) Human fetal lung cells (HFL; ATCC CCL 153) and keloid cells (5×10^4 cells/well) were separately added to 16 mm wells and treated as described in Example 1. The results are shown in Tables 2 (keloid cells) and 3 (human fetal lung cells)."}, "[2]": {"tested_on": "Human fetal lung cells (HFL; ATCC CCL 153)", "assay": "Comparison of n-docosanol effect between keloid and normal cells: human fetal lung cells (Example 2)", "format": "cell-based", "conditions": "15 mM; for activity at 15000 µM: Homo sapiens, compared to cells incubated with no addition, read-out: % control; for activity at 15000 µM / cells/well: Table 3", "method": "as §1, §2"}, "[3]": {"tested_on": "normal skin fibroblast (ATCC CRL 1900) cells", "assay": "Proliferation study, normal skin fibroblasts (Example 3)", "format": "cell-based", "method": "(§3) The following experiment examined the effect of n-docosanol on cell proliferation and quantitation of n-[1-^14 C]docosanol binding to keloid, Vero (normal African green monkey kidney; ATCC CCL 81) and normal skin fibroblast (ATCC CRL 1900) cells.\n(§4) Human keloid fibroblasts, normal control skin fibroblasts and Vero cells were obtained from ATCC. n-Docosanol (30 mM) was suspended in Pluronic F-68 (1.2 mM) as described previously (Katz et al., ibid). A vehicle control was prepared using the same procedure except for the omission of n-docosanol. Radiolabeled n-[1-^14 C] docosanol suspension was prepared as described by Katz et al. (ibid.). Cells were resuspended in 1.2×10^6 cells/ml in DMEM supplemented with 10% fetal calf serum, sodium pyruvate, L-glutamine and penicillin-streptomycin. Cell suspension (0.5 ml) was added to each 35 mm well containing 1.3 ml media, followed by addition of 0.2 ml radiolabeled n-docosanol suspension (final n-docosanol concentration=3 mM). After 24 hours at 37° C. in humidified 10% CO2, the suspension was removed, wells were washed extensively with saline and cells were solubilized for scintillation counting by incubation with 0.5 ml trypsin for 15 min at 37° C. Solubilized cells were counted in a Beckman LS6000 scintillation counter. Samples were corrected for nonspecific binding to plates by subtracting values obtained in control wells lacking cells. To determine cell number, duplicate plates were treated with non-radiolabeled n-docosanol or control suspension at the same concentration or were left untreated. The number of viable cells was determined by trypan blue staining."}, "Human keloid fibroblasts [4]": {"tested_on": "Human keloid fibroblasts", "assay": "Radiolabeled n-docosanol binding to keloid cells (Example 3)", "format": "cell-based", "conditions": "24 hours", "method": "as §4"}, "[5]": {"tested_on": "normal skin fibroblast (ATCC CRL 1900) cells", "assay": "Radiolabeled n-docosanol binding to normal skin fibroblasts (Example 3)", "format": "cell-based", "conditions": "Table 4, n-[1-14C]docosanol 3 mM, 24 hours", "method": "as §3\nas §4, with “Samples were corrected for nonspecific binding to plates by subtracting values obtained in control wells lacking cells. To determine cell number, duplicate plates were treated with non-radiolabeled n-docosanol or control suspension at the same concentration or were left untreated.” left out"}, "[6]": {"tested_on": "Vero (normal African green monkey kidney; ATCC CCL 81) cells", "assay": "Radiolabeled n-docosanol binding to Vero cells (Example 3)", "format": "cell-based", "conditions": "Table 4, n-[1-14C]docosanol 3 mM, 24 hours", "method": "as §3\nas §4, with “Samples were corrected for nonspecific binding to plates by subtracting values obtained in control wells lacking cells. To determine cell number, duplicate plates were treated with non-radiolabeled n-docosanol or control suspension at the same concentration or were left untreated.” left out"}, "[7]": {"tested_on": "cutaneous Kaposi's sarcoma", "assay": "Treatment of Kaposi's sarcoma with 10% n-docosanol cream (Example 6)", "format": "in vivo, Human", "conditions": "10% cream", "method": "HIV-positive male patients presenting with treatment-resistant cutaneous Kaposi's sarcoma were treated for 28 days, 5 times daily with the 10% n-docosanol cream formulation described in Example 4. Response to treatment was evaluated according to lesion dimensions, color of the lesion and the type of lesion (hard, soft or nodule). The data were recorded on intermittent days throughout the 28 days of the study and values were compared to baseline observations made on Day 1. Three target lesions were evaluated in each patient. Thus far, five patients have completed the study."}, "herpes simplex virus": {"tested_on": "herpes simplex virus", "conditions": "suspended in a surfactant; cell culture assays; cited from earlier work"}, "[8]": {"tested_on": "respiratory syncytial virus", "conditions": "suspended in a surfactant; cell culture assays; cited from earlier work"}, "[9]": {"conditions": "one patient, Day 15 and thereafter"}},
  "note": "Where “and” joins values, the source holds several entries; their conditions need not be identical. Equal values may be shown once. Entries after “also recorded” stand apart in the source; their conditions may differ. Read-outs that look alike come from different tables or passages of the source.",
  "data": [
    {"smiles": "CCCCCCCCCCCCCCCCCCCCCCO", "note": "[n-docosanol]", "values": [
      {"measurement": "inhibition of keloid cell growth in vitro (in words)", "setting": "Human keloid fibroblasts [1]", "value": "favored by low cell densities and longer incubation times and is concentration-dependent; also recorded: dramatic inhibition of keloid cell growth"},
      {"measurement": "inhibition of keloid cell growth in vitro (in words)", "setting": "Human keloid fibroblasts [1]; listed as n-Docosanol", "value": "exhibits antiproliferative activity against cultured hypertrophic fibroblasts"},
      {"measurement": "inhibition at 15000 µM", "setting": "Human keloid fibroblasts [1]; Homo sapiens, Fibroblast, 168 hours, compared to no addition, read-out: inhibition of cell growth", "value": 76, "unit": "%"},
      {"measurement": "activity at 15000 µM", "setting": "Human keloid fibroblasts [1]; Homo sapiens, Fibroblast, 72 hours", "value": 103, "unit": "%"},
      {"measurement": "activity at 15000 µM", "setting": "Human keloid fibroblasts [1]; Homo sapiens, Fibroblast, 168 hours", "value": 24, "unit": "%"},
      {"measurement": "cells/well", "setting": "Human keloid fibroblasts [1]; 72 hours", "value": "3.3 × 10^4 cells/well"},
      {"measurement": "cells/well", "setting": "Human keloid fibroblasts [1]; 168 hours", "value": "1.0 × 10^4 cells/well"},
      {"measurement": "inhibition at 15000 µM", "setting": "keloid cells; 72 hours", "value": 36, "unit": "%"},
      {"measurement": "inhibition at 15000 µM", "setting": "keloid cells; 168 hours", "value": 85, "unit": "%"},
      {"measurement": "activity at 15000 µM", "setting": "keloid cells; 72 hours", "value": 64, "unit": "%"},
      {"measurement": "activity at 15000 µM", "setting": "keloid cells; 168 hours", "value": 15, "unit": "%"},
      {"measurement": "cells/well", "setting": "keloid cells; 72 hours", "value": "1.1 × 10^4 cells/well"},
      {"measurement": "cells/well", "setting": "keloid cells; 168 hours", "value": "0.4 × 10^4 cells/well"},
      {"measurement": "number of human fetal lung cells (in words)", "setting": "[2]; at both time intervals (72 and 168 hours)", "value": "significantly increased"},
      {"measurement": "activity at 15000 µM", "setting": "[2]; 72 hours", "value": 116, "unit": "%"},
      {"measurement": "activity at 15000 µM", "setting": "[2]; 168 hours", "value": 250, "unit": "%"},
      {"measurement": "cells/well", "setting": "[2]; 72 hours", "value": "5.8 × 10^4 cells/well"},
      {"measurement": "cells/well", "setting": "[2]; 168 hours", "value": "20 × 10^4 cells/well"},
      {"measurement": "number of CRL-1900 normal skin fibroblasts (in words)", "setting": "[3]; 3 mM, one day incubation", "value": "not decreased"},
      {"measurement": "activity at 3000 µM", "setting": "[3]; Skin fibroblast, Table 4, CRL-1900, 3 mM, 24 hours, compared to cells incubated with no addition, read-out: % ctrl", "value": 98, "unit": "%"},
      {"measurement": "No. cells", "setting": "[3]; Table 4, CRL-1900, 3 mM, 24 hours", "value": "5.4 × 10^5 cells"},
      {"measurement": "growth of normal cells (in words)", "setting": "[3]; under the tissue culture conditions used, general statement on normal cells", "value": "unaffected"},
      {"measurement": "amount of radiolabeled n-docosanol bound to keloid as compared to CRL 1900 cells", "setting": "Human keloid fibroblasts [4]; 3 mM, vs CRL 1900", "value": "About three"},
      {"measurement": "Binding per 10^6 cells", "setting": "Human keloid fibroblasts [4]; Table 4, Keloid, n-[1-14C]docosanol 3 mM", "value": 45.5, "unit": "μg"},
      {"measurement": "Binding per 10^6 cells", "setting": "[5]", "value": 15.6, "unit": "μg"},
      {"measurement": "Binding per 10^6 cells", "setting": "[6]", "value": 8.9, "unit": "μg"},
      {"measurement": "patients with a response (reduction in the size of the lesions)", "setting": "[7]; Day 28 vs Day 1", "value": "three out of five"},
      {"measurement": "lesions with reduction in size, two patients", "setting": "[7]; Day 28 vs Day 1, each of two patients", "value": "3 out of 3"},
      {"measurement": "lesions with reduction in size, one patient", "setting": "[7]; Day 28 vs Day 1, one patient", "value": "2 out of 3"},
      {"measurement": "color changes in lesions", "setting": "[7]; all five patients, all lesions", "value": "color changes in all lesions to a lighter color"},
      {"measurement": "increase in lesion size", "setting": "[7]; any of the 15 lesions studied", "value": "not observed"},
      {"measurement": "disappearance of lesion", "setting": "[7]; by Day 3, one lesion", "value": "One lesion completely disappeared by Day 3"},
      {"measurement": "clinically observed swelling", "setting": "[7]; [9]", "value": "decrease in the clinically observed swelling"},
      {"measurement": "pain of lesions", "setting": "[7]; [9]", "value": "less painful"},
      {"measurement": "Day 28 Color", "setting": "[7]; Table 5, 5 times daily, 28 days, per patient and lesion", "value": "pale and gone and pale pink and very pale and pink and tan and lighter"},
      {"measurement": "percent reduction in lesion size", "setting": "[7]; Table 5, Day 28 vs Day 1, 5 times daily, per patient and lesion", "value": "75% and gone and 74% and 19% and 20% and 0% and 28% and 10%"},
      {"measurement": "antiviral activity", "setting": "herpes simplex virus", "value": "potent antiviral activity"},
      {"measurement": "antiviral activity", "setting": "[8]", "value": "potent antiviral activity"}
    ]}
  ]
}
